# Measured values from PubChem BioAssay (NCI).
#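 A five-concentration, 48-hour dose response in 96-well plates underlies each endpoint, interpolated linearly between surrounding concentrations. TGI: total growth inhibition.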
# Key:
# Test in all cases: NCI anticancer screen, dose series, 48 h
# DLD-1 colon = test system: DLD-1 colon
# DMS 114 small cell lung = test system: DMS 114 small cell lung
# DMS 273 small cell lung = test system: DMS 273 small cell lung
# HOP-18 NSCLC = test system: HOP-18 NSCLC
# KM20L2 colon = test system: KM20L2 colon
# LXFL 529 NSCLC = test system: LXFL 529 NSCLC
# M19-MEL melanoma = test system: M19-MEL melanoma
# OVCAR-5 ovarian = test system: OVCAR-5 ovarian
# RXF-631 renal = test system: RXF-631 renal
# SNB-78 CNS = test system: SNB-78 CNS
# SR leukemia = test system: SR leukemia
# XF 498 CNS = test system: XF 498 CNS
Structure (SMILES),TGI (OVCAR-5 ovarian) [µM],TGI (SR leukemia) [µM],also measured
Cc1cc(Cc2cc(C)c(NC(=O)C(=O)C3C(=O)NC(=S)NC3=O)c(C(C)C)c2)cc(C(C)C)c1NC(=O)C(=O)C1C(=O)NC(=S)NC1=O,> 100,> 100,TGI (DLD-1 colon): > 100 µM; TGI (DMS 114 small cell lung): > 100 µM; TGI (DMS 273 small cell lung): > 100 µM; TGI (HOP-18 NSCLC): > 100 µM; TGI (KM20L2 colon): > 100 µM; TGI (LXFL 529 NSCLC): > 100 µM; TGI (M19-MEL melanoma): > 100 µM; TGI (RXF-631 renal): > 100 µM; TGI (SNB-78 CNS): > 100 µM
Clc1ccc(OCc2nnc3sc(-c4ccc(-c5ccc(Cl)cc5Cl)o4)nn23)c(Cl)c1,49.1,25.5,–
COc1ccc(NC(=O)C(=O)NNC(=O)c2sc(NNC(C)=O)nc2C)c([N+](=O)[O-])c1,> 100,> 100,TGI (DMS 114 small cell lung): > 100 µM; TGI (DMS 273 small cell lung): > 100 µM; TGI (KM20L2 colon): > 100 µM; TGI (LXFL 529 NSCLC): > 100 µM; TGI (M19-MEL melanoma): > 100 µM; TGI (SNB-78 CNS): > 100 µM; TGI (XF 498 CNS): > 100 µM
COc1cccc(NCC(=O)Nn2c(-c3ccccc3)nc3ccccc3c2=O)c1,> 100,> 100,–
COc1nn(Cc2ccccc2F)c2ccc([N+](=O)[O-])cc12,> 100,> 100,–
Cc1cc(N(CCC#N)CCC#N)ccc1/C=C(\NC(=O)/C=C/c1ccccc1)NC(=O)Nc1ccc(Cl)cc1,> 100,–,TGI (DLD-1 colon): > 100 µM; TGI (DMS 114 small cell lung): > 100 µM; TGI (DMS 273 small cell lung): > 100 µM; TGI (LXFL 529 NSCLC): > 100 µM; TGI (M19-MEL melanoma): > 100 µM; TGI (XF 498 CNS): > 100 µM
N#Cc1c(=O)c2cc([N+](=O)[O-])ccc2n2c1[nH]c1ccccc12,> 100,96.6,–
COC1(OC)N=C(N)C2(C#N)C(C)CC(=O)N(N(C)C)C12C#N (configuration not stated),> 100,> 100,–
O=C1Oc2ccccc2C(=O)/C1=C/N1C(=O)/C(=C/c2ccc([N+](=O)[O-])cc2)SC1=S,> 100,> 100,–
CC(C)CCCC(C)[C@H]1CC[C@H]2[C@@H]3CC[C@H]4C[C@@H](CCC=C(c5cc(Cl)c(O)c(C(=O)OC(C)(C)C)c5)c5cc(Cl)c(O)c(C(=O)OC(C)(C)C)c5)CC[C@]4(C)[C@H]3CC[C@]12C (some centres not stated),> 50,–,–
CCSc1nc2sc(C)c(C)c2c(=O)n1-c1ccc(C(=O)O)cc1,> 100,> 100,TGI (DLD-1 colon): > 100 µM; TGI (DMS 114 small cell lung): > 100 µM; TGI (HOP-18 NSCLC): 48.6 µM; TGI (KM20L2 colon): > 100 µM; TGI (M19-MEL melanoma): > 100 µM; TGI (SNB-78 CNS): > 100 µM; TGI (XF 498 CNS): > 100 µM
O=C1CN(c2ccc(Cl)cc2)C(=O)CN1CCN1CC(=O)N(c2ccc(Cl)cc2)CC1=O,> 100,> 100,–
CCOC(=O)CCC(C(=O)OCC)n1nc2ccc(Nc3c(C)[n+]([O-])c4cc(Cl)ccc4[n+]3[O-])cc2n1 (configuration not stated),> 100,> 100,–
CCCCCCCCCCCCCCCCCCNc1ccn(C2OC(COP(=O)(O)O)C(O)C2O)c(=O)n1 (configuration not stated),> 100,–,–
c1ccc2c(c1)CCc1c-2n(CCN2CCCCC2)c2ccccc12,30.2,32.3,–
COC(=O)NCCc1[nH]nc2c1C(=O)C=C(OC)C2=O,37.8,36.6,–
Oc1[nH]c2ccccc2c1N=NC1=NCCCCN1,> 100,> 100,–
O=C(CSc1nnc(Cc2ccccc2)o1)Nc1ccc(Cl)cc1,> 100,–,TGI (DLD-1 colon): > 100 µM; TGI (DMS 114 small cell lung): > 100 µM; TGI (DMS 273 small cell lung): > 100 µM; TGI (HOP-18 NSCLC): > 100 µM; TGI (KM20L2 colon): > 100 µM; TGI (LXFL 529 NSCLC): > 100 µM; TGI (M19-MEL melanoma): > 100 µM; TGI (SNB-78 CNS): > 100 µM
NC(=O)c1n[nH]n(-c2ccccc2)c1=O,> 100,–,–
Oc1ccc(-c2nc3cc(C(F)(F)F)ccc3n2CC2CCCN3CCCCC23)cc1 (configuration not stated),67,35.8,–
COC(=O)c1ccc2n1C1CC3CC(CC2C3)C1,> 100,> 100,–

Structure (SMILES),TGI (OVCAR-5 ovarian) [µM],TGI (SR leukemia) [µM],also measured
CO/N=C1\CCC2(O)C3Cc4ccc(O)c5c4C2(CCN3CC2CC2)[C@H]1O5 (some centres not stated),> 100,> 100,–
N#C/C(=C/c1cccnc1)C(=O)c1ccccc1,> 100,> 100,TGI (DLD-1 colon): > 100 µM; TGI (DMS 114 small cell lung): > 100 µM; TGI (DMS 273 small cell lung): > 100 µM; TGI (HOP-18 NSCLC): > 100 µM; TGI (KM20L2 colon): > 100 µM; TGI (LXFL 529 NSCLC): > 100 µM; TGI (M19-MEL melanoma): > 100 µM; TGI (SNB-78 CNS): > 100 µM; TGI (XF 498 CNS): > 100 µM
OCCCSc1ccccc1SCCCO,> 100,> 100,–
CC1=C(C2=C(C)C(=O)C(=O)c3cc(C)ccc32)c2ccc(C)cc2C(=O)C1=O,0.45,–,–
CC1=C(C(=O)OCCO[N+](=O)[O-])C(c2ccccc2C(F)(F)F)C(C(=O)OC(C)C)=C(C)N1 (configuration not stated),37.3,> 100,–
C=C(C)CCC1CCCCC(CN(C)C)C1=O (configuration not stated),> 100,> 100,–
Oc1cc(Cl)cc2cc(Br)cnc12,> 100,> 20.1,–
O=[N+]([O-])c1ccc(NC2OCC(O)C(O)C2O)cc1 (configuration not stated),–,> 100,TGI (DLD-1 colon): > 100 µM; TGI (DMS 114 small cell lung): > 100 µM; TGI (DMS 273 small cell lung): > 100 µM; TGI (KM20L2 colon): > 100 µM; TGI (LXFL 529 NSCLC): > 100 µM; TGI (RXF-631 renal): > 100 µM; TGI (SNB-78 CNS): > 100 µM; TGI (XF 498 CNS): > 100 µM
CCCCCCOc1ccc(NC2=C(Cl)C(=O)c3cccnc3C2=O)cc1,5.01,–,–
CC(C)(C)c1cc(-c2ccc(-c3cc(C(C)(C)C)c(O)c(C(C)(C)C)c3)cc2)cc(C(C)(C)C)c1O,> 100,> 100,–
O=C1CC(Br)c2c(Cl)sc(Cl)c21 (configuration not stated),36.3,32.2,–
O=[N+]([O-])CC(SCc1ccccc1)c1ccc2c(c1)OCO2 (configuration not stated),30.2,8.51,–
NC1CC2C3CCC2C1C3=O (configuration not stated),> 100,> 100,–
Cc1ccc(C(=O)CC(Cl)=C(Cl)Cl)cc1,> 100,55.6,–
COc1ccc(CNc2nc(NCc3ccc(OC)cc3)nc(Nc3ccccc3)n2)cc1,> 100,3.81,–
C/C(Cl)=N\OC(=O)Nc1ccccc1C(F)(F)F,> 100,44.9,–
O=c1nc2n(cc1/C=C\Br)C1CC(O)C(CO2)O1 (configuration not stated),> 100,–,–
Cc1cccc2sc(NC(=O)c3cc([N+](=O)[O-])ccc3Cl)nc12,28.4,> 100,–
Cc1cc(C)c2c(n1)S(=O)(=O)N(CCCN1CCN(c3cccc(C(F)(F)F)c3)CC1)/C(=C(\O)c1ccccc1)C2=O,39,18.7,–
COc1cc(/C=C2\N=C(c3ccccc3)N(C3Nc4cc5c(cc4S3)NC(N3C(=O)/C(=C/c4cc(OC)c(OC)c(OC)c4)N=C3c3ccccc3)S5)C2=O)cc(OC)c1OC (configuration not stated),> 100,> 100,–
